Type in all cases: in vivo
The test system of test [1] is Solanum nigrum (SOLNI). The experiment in a line: Pre-emergence biological efficacy, glasshouse, 1000 g/ha, evaluated after 13 days (100=total damage to plant; 0=no damage to plant). The conditions noted are these: Solanum nigrum, 312 h, read-out: Percentage damage caused to weed species, pre-emergence, SOLNI; for pest or weed control at 1000 g/ha: rate 1,000 g/ha. The method in brief:
(§1)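 Seeds were sown in standard soil in pots, then grown in a controlled glasshouse at 24/16° C. day/night, 14 hours light and 65% humidity, with watering twice daily.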

Test [2] relates to Amaranthus retroflexus (AMARE). The test is described as above. Particulars: Amaranthus retroflexus, 312 h, read-out: Percentage damage caused to weed species, pre-emergence, AMARE; for pest or weed control at 1000 g/ha: rate 1,000 g/ha. Summed up:
as §1

For test [3], the system named is Setaria faberi (SETFA). The test is described as above. Particulars: Setaria faberi, 312 h, read-out: Percentage damage caused to weed species, pre-emergence, SETFA; for pest or weed control at 1000 g/ha: rate 1,000 g/ha. Summed up: as §1
Test [4] relates to Alopecurus myosuroides (ALOMY). The description is as above. Particulars: Alopecurus myosuroides, 312 h, read-out: Percentage damage caused to weed species, pre-emergence, ALOMY; for pest or weed control at 1000 g/ha: rate 1,000 g/ha. The method in brief:
as §1

The subject of test [5] is Echinochloa crus-galli (ECHCG). The test is described as above. Particulars: Echinochloa crus-galli, 312 h, read-out: Percentage damage caused to weed species, pre-emergence, ECHCG; for pest or weed control at 1000 g/ha: rate 1,000 g/ha. Summed up:
as §1

The test system of test [6] is Ipomoea hederaceae (IPOHE). Described as above. The conditions noted are these: Ipomoea, 312 h, read-out: Percentage damage caused to weed species, pre-emergence, IPOHE; for pest or weed control at 1000 g/ha: rate 1,000 g/ha. Summed up:
as §1

Test [7] relates to Solanum nigrum (SOLNI). Nature of the test: Post-emergence biological efficacy, glasshouse, 500 or 1000 g/ha, evaluated after 13 days (100=total damage to plant; 0=no damage to plant). Particulars: Solanum nigrum, 312 h, read-out: Percentage damage caused to weed species, post-emergence, SOLNI; for pest or weed control at 1000 g/ha: rate 1,000 g/ha. The method in brief: (§2)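 Sow seeds in standard potting soil. Treat after emergence. Keep treated plants in the glasshouse at 24° C. by day and 16° C. by night, with a 14-hour photoperiod, 65% humidity and two waterings daily.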

In test [8] the test system is Amaranthus retroflexus (AMARE). Described as above. Particulars: Amaranthus retroflexus, 312 h, read-out: Percentage damage caused to weed species, post-emergence, AMARE; for pest or weed control at 1000 g/ha: rate 1,000 g/ha. Summed up:
as §2

Test [9] concerns Setaria faberi (SETFA). The description is as above. Particulars: Setaria faberi, 312 h, read-out: Percentage damage caused to weed species, post-emergence, SETFA; for pest or weed control at 1000 g/ha: rate 1,000 g/ha. The method in brief:
as §2

For test [10], the system named is Alopecurus myosuroides (ALOMY). The description is as above. Particulars: Alopecurus myosuroides, 312 h, read-out: Percentage damage caused to weed species, post-emergence, ALOMY; for pest or weed control at 1000 g/ha: rate 1,000 g/ha. The method in brief:
as §2

In test [11] the test system is Echinochloa crusgaffi (ECHCG). Described as above. Particulars: Echinochloa, 312 h, read-out: Percentage damage caused to weed species, post-emergence, ECHCG; for pest or weed control at 1000 g/ha: rate 1,000 g/ha. Summed up:
as §2

Test [12] relates to Ipomoea hederaceae (IPOHE). Described as above. Particulars: Ipomoea, 312 h, read-out: Percentage damage caused to weed species, post-emergence, IPOHE; for pest or weed control at 1000 g/ha: rate 1,000 g/ha. The method in brief: as §2

SMILES strings stand for the structures.

On to `C=C1c2c(nc(-c3ccc(Cl)c(OC)c3F)nc2C(=O)OC)NCC1(C)C` [Compound 71-180, 2-(4-Chloro-2-fluoro-3-methoxyphenyl)-6,6-dimethyl-4-methoxycarbonyl-5-methylene-5,6,7,8-tetrahydro-pyrido[2,3-d]pyrimidine], for which the pest or weed control at 500 g/ha (in the test on Solanum nigrum (SOLNI) [1] (rate 500 g/ha); in [2] (rate 500 g/ha); with Setaria faberi (SETFA) [3] (rate 500 g/ha); in [4] (rate 500 g/ha); in test [5] (rate 500 g/ha); in test [6] (rate 500 g/ha)) was 0% in each case. The pest or weed control at 500 g/ha in the test on Solanum nigrum (SOLNI) [7] (rate 500 g/ha) was 20%; in test [8] (rate 500 g/ha), 0%; in the test with Setaria faberi (SETFA) [9] (rate 500 g/ha) it was 0%; in test [10] (rate 500 g/ha) it was 0%; in [11] (rate 500 g/ha) it was 0%; in test [12] (rate 500 g/ha), 40%.
`COC(=O)c1nc(-c2ccc(Cl)c(OC)c2F)nc2c1N(Cc1ccccc1)C(C)N2Cc1ccccc1` (stereo not drawn) [Compound 81-46, 2-(4-chloro-2-fluoro-3-methoxyphenyl)-7,9-dibenzyl-6-methoxycarbonyl-8-methyl-8,9-dihydro-7H-purine]: the pest or weed control at 1000 g/ha (in the test on Solanum nigrum (SOLNI) [1]; in test [2]; in the test on Setaria faberi (SETFA) [3]; in [4]; in test [5]; in test [6]) was 0% each time. In addition, the pest or weed control at 1000 g/ha in the test on Solanum nigrum (SOLNI) [7] was 10%; in [8], 0%; in the test on Setaria faberi (SETFA) [9], 10%; in [10], 0%; in [11] it was 0%; in test [12] it was 0%.
With `COC(=O)c1nc(-c2ccc(Cl)c(OC)c2F)nc2c1N(Cc1ccc(OC)cc1OC)C(C)N2Cc1ccc(OC)cc1OC` (stereo not drawn) [Compound 83-48, 2-(4-Chloro-2-fluoro-3-methoxyphenyl)-7,9-bis(2,4-dimethoxyphenyl-methyl)-6-methoxycarbonyl-8-methyl-8,9-dihydro-7H-purine], the pest or weed control at 1000 g/ha (with Solanum nigrum (SOLNI) [1]; in test [2]; in the test with Setaria faberi (SETFA) [3]; in test [4]; in test [5]; in [6]) was 0% each time. Besides, the pest or weed control at 1000 g/ha in the test on Solanum nigrum (SOLNI) [7] was determined as 20%; in test [8] it was 0%; in the test on Setaria faberi (SETFA) [9], 20%; in [10] it was 20%; in test [11], 20%; in test [12] it was 10%.
In the case of `COC(=O)c1nc(C2CC2)nc2c1NC(c1ccccc1)C(c1ccccc1)N2` (stereo not drawn) [Compound 91-44, 2-cyclopropyl-6,7-diphenyl-4-methoxycarbonyl-5,6,7,8-tetrahydropteridine], the pest or weed control at 1000 g/ha came to 30% in the test with Solanum nigrum (SOLNI) [1]; 70% in test [2]; 0% in the test with Setaria faberi (SETFA) [3]; 30% in test [4]; 10% in [5]; 20% in test [6]. Moreover, the pest or weed control at 1000 g/ha with Solanum nigrum (SOLNI) [7] stood at 90%; in [8], 70%; in the test with Setaria faberi (SETFA) [9], 50%; in test [10], 20%; in test [11], 50%; in test [12] it was 60%.
For the compound `COC(=O)c1nc(-c2ccc(Cl)c(OC)c2F)nc2c1NC(C)C(C)N2` (stereo not drawn) [Compound 91-184, 2-(4-Chloro-2-fluoro-3-methoxyphenyl)-6,7-dimethyl-4-methoxy-carbonyl-5,6,7,8-tetrahydropteridine], the pest or weed control at 1000 g/ha (in the test with Solanum nigrum (SOLNI) [1]; in test [2]; in the test with Setaria faberi (SETFA) [3]; in [4]; in test [5]; in test [6]) was 0% in each case. In addition, the pest or weed control at 1000 g/ha in the test on Solanum nigrum (SOLNI) [7] was found to be 50%; in test [8] it was 20%; in the test on Setaria faberi (SETFA) [9], 0%; in test [10], 0%; in test [11] it was 30%; in [12], 70%.
For the compound `COc1c(Cl)ccc(-c2nc3c(c(C(=O)O)n2)NC(c2ccccc2)C(c2ccccc2)N3)c1F` (stereo not drawn) [Compound 91-203, 4-Carboxy-2-(4-chloro-2-fluoro-3-methoxyphenyl)-6,7-diphenyl-5,6,7,8-tetrahydropteridine], the pest or weed control at 1000 g/ha amounted to 20% in the test with Solanum nigrum (SOLNI) [1]; 0% in test [2]; 0% in the test with Setaria faberi (SETFA) [3]; 0% in test [4]; 0% in [5]; 10% in test [6]. Further, the pest or weed control at 1000 g/ha is 40% with Solanum nigrum (SOLNI) [7]; 10% in test [8]; 10% with Setaria faberi (SETFA) [9]; 0% in test [10]; 0% in test [11]; 10% in test [12].
On to `COC(=O)c1nc(-c2ccc(Cl)c(OC)c2F)nc2c1NC(c1ccccc1)C(c1ccccc1)N2` (stereo not drawn) [Compound 91-204, 2-(4-Chloro-2-fluoro-3-methoxyphenyl)-6,7-diphenyl-4-methoxycarbonyl-5,6,7,8-tetrahydropteridine], for which the pest or weed control at 1000 g/ha is 10% in the test with Solanum nigrum (SOLNI) [1]; 20% in test [2]; 0% in the test on Setaria faberi (SETFA) [3]; 0% in test [4]; 0% in [5]; 0% in [6]. Also, the pest or weed control at 1000 g/ha was 80% with Solanum nigrum (SOLNI) [7]; 50% in test [8]; 0% in the test on Setaria faberi (SETFA) [9]; 0% in test [10]; 0% in test [11]; 40% in [12].
In the case of `COc1c(Cl)ccc(-c2nc3c(c(C(=O)O)n2)N[C@@H]2CCCC[C@H]2N3)c1F` [Compound 91-207, (5aR,9aR)-4-Carboxy-2-(4-chloro-2-fluoro-3-methoxyphenyl)-5,5a,6,7,8,9,9a,10-octahydro-benzo[g]pteridine], the pest or weed control at 1000 g/ha in the test on Solanum nigrum (SOLNI) [1] came to 10%; in [2], 20%; in the test on Setaria faberi (SETFA) [3] it was 10%; in [4], 0%; in [5] it was 0%; in test [6], 0%. Besides, the pest or weed control at 1000 g/ha in the test with Solanum nigrum (SOLNI) [7] was 70%; in test [8], 20%; in the test with Setaria faberi (SETFA) [9], 0%; in test [10], 0%; in test [11], 0%; in [12], 60%.

(Values after patent US20120202690A1, “HERBICIDAL COMPOUNDS” (SYNGENTA LIMITED, priority 2009, published 2012).)
